Structures are written as SMILES. Converted amounts (≈) assume the structure as drawn.

For assay [1], the system named is MCF-7 cells. The assay is described as follows: MTT antiproliferative assay, MCF-7 cells. It counts as cell-based. An excerpt:
(§1) Recently, OSe agents have attracted interest due to their potential chemoprotective and antitumor properties. […] Therefore, we estimated the OSe agents’ antiproliferative activities against different cancer cells, i.e., MCF-7 and HepG2 cells and healthy lung fibroblast WI-38 cells, using the MTT assay. The drug doxorubicin was employed as the standard. The corresponding therapeutic indices (TI) are described as the proportion of the WI38 cells IC50 to the IC50 of the cancer cell (e.g., MCF-7 and HepG2) (Table 1).
(§2) The products’ anticancer activity was examined using the MTT assay against breast (MCF-7) carcinoma cells, liver (HepG2), and normal WI-38 cells, following the previously reported method. Experimental details can be found in the Supplementary Materials.
(§3) 1.1. The biological assays
(§4) 1.1.1. The anticancer activity
(§5) The breast adenocarcinoma (MCF-7), Hepatocellular carcinoma (HEPG-2), and normal fibroblast (WI-38) cells were obtained from ATCC via Holding company for biological products and vaccines (VACSERA), Cairo, Egypt. The reagents […] medium, MTT, DMSO, and fetal bovine serum was obtained from Sigma Aldrich. Dulbecco’s modified Eagle’s medium was used as the culture medium for the cells, and the cytotoxicity was evaluated using the reported MTT assay. Doxorubicin was used as the positive reference, and the IC50 values were obtained from the corresponding dose-response curve.
(§6) This colorimetric assay is based on converting the yellow tetrazolium bromide (MTT) to a purple formazan derivative by mitochondrial succinate dehydrogenase in viable cells. Cell lines were cultured in […] medium with 10% fetal bovine serum. Antibiotics added were 100 units/ml penicillin and 100µg/ml streptomycin at 37 C in a 5% Co2 incubator. The cell lines were seeded in a 96-well plate at a density of 1.0x10^4 cells/well. at 37 C for 48 h under 5% Co2. After incubation, the cells were treated with different concentrations of compounds and incubated for 13 […]
(§7) Finally, dimethyl sulfoxide (DMSO) in the volume of 100 µl is added to each well to dissolve the purple formazan formed. The colorimetric assay is measured and recorded at an absorbance of 570 […]
(§8) The percentage of the relative cell viability was calculated as (A570 of treated samples/A570 of the untreated sample) X 100. […]

For assay [2], the system named is HepG2 cells. The assay is described as follows: MTT antiproliferative assay, HepG2 cells. Type of assay: cell-based.
Excerpt: Recently, OSe agents have attracted interest due to their potential chemoprotective and antitumor properties. We have developed several OSe compounds with promising antioxidant, antimicrobial, and antitumor properties. Therefore, we estimated the OSe agents’ antiproliferative activities against different cancer cells, i.e., MCF-7 and HepG2 cells and healthy lung fibroblast WI-38 cells, using the MTT assay. The drug doxorubicin was employed as the standard. The corresponding therapeutic indices (TI) are described as the proportion of the WI38 cells IC50 to the IC50 of the cancer cell (e.g., MCF-7 and HepG2) (Table 1).
as §2, §3, §4, §5, §6
Finally, dimethyl sulfoxide (DMSO) in the volume of 100 µl is added to each well to dissolve the purple formazan formed. The colorimetric assay is measured and recorded at an absorbance of 570 nm using a plate reader (EXL 800, USA). The percentage of the relative cell viability was calculated as (A570 of treated samples/A570 of the untreated sample) X 100. […]

In assay [3] the test system is WI-38 cells. The assay is described as follows: MTT cytotoxicity assay, normal lung fibroblast WI-38 cells. The following applies: Homo sapiens, WI-38, 24 h, read-out: WI38 IC50. Type of assay: cell-based.
Excerpt: as §1, §2, §3, §4, §5, §6, §7, §8

Assay [4] concerns C. albicans. Nature of the assay: Agar diffusion assay, C. albicans. Type of assay: cell-based, Candida albicans.
The test system of assay [5] is S. aureus. The assay is described as follows: MIC by microdilution, S. aureus. It counts as cell-based. Particulars: Staphylococcus aureus; microdilution method. An excerpt: The encouraging antitumor properties of the OSe compounds motivated us to evaluate their corresponding antimicrobial activities against the C. albicans fungal strain, S. aureus Gram-positive bacteria, and E. coli Gram-negative bacteria. Therefore, we applied the agar diffusion and minimum inhibitory concentration (MIC) methods using clotrimazole antifungal and ampicillin antibacterial drugs as standards.
The products’ antimicrobial properties were examined according to the previously reported method, via agar well diffusion assay against E. coli, S. aureus, and C. albicans. A microdilution method was also used to record MICs (M), following the previously reported procedure. Experimental details can be found in the Supplementary Materials.
Briefly, a concentration of 1 mM was prepared for each compound by dissolving in DMSO. Paper discs of standard size […] were sterilized in an autoclave and soaked in 9 µL of the test compounds, and placed in the Petri dishes, which in turn contain a nutrient media (agar 9 g, peptone 5 g, and beef extract 3 g) seeded with the dedicated strain. Incubation lasted for 13 h at 36 0C. […]

With `Nc1ccc([Se]CC(=O)NOCc2ccccc2)cc1` [Compound 8, 2-((4-Aminophenyl)selanyl)-N-(benzyloxy)acetamide], the IC50 was 9.86 ± 0.7 µM in assay [1] (Homo sapiens, MCF7, 24 h, read-out: MCF7 IC50); 7.57 ± 0.5 µM in assay [2] (Homo sapiens, HepG2, 24 h, read-out: HepG2 IC50); 27.4 ± 2.1 µM in assay [3]. Moreover, the “MCF7 TI (therapeutic index)” value in assay [1] (ratio of IC50 against WI38 cells to IC50 against MCF-7 cells) is listed as 2.8. Also, the “HepG2 TI (therapeutic index)” value in assay [2] (ratio of IC50 against WI38 cells to IC50 against HepG2 cells) is 3.6. The zone of inhibition at 20 µM in assay [4] (Candida albicans, read-out: C. albicans ZID (inhibition zone diameter)) came to 22 mm. Also, the “C. albicans IA% (activity index)” value in assay [4] (ratio of inhibition zone of compound to that of positive control (clotrimazole)) amounted to 91.7%. This molecule also showed an MIC in assay [5] of 4 µM (≈ 1.34 µg/mL).

These data come from article PMC10059083, “Design, Synthesis, and Biological Evaluation of Novel Hydroxamic Acid-Based Organoselenium Hybrids” (Pharmaceuticals, 2023).
